Test results reported in US10301280B2 (Plexxikon Inc., priority 2012, dated 2019).

System: BaF3-FL KIT D816V or BaF3-FL KIT V560G/D816V cell line
Assay: Cell-based assays of c-Kit mutant kinase activity (cell growth, ATPlite)
Settings: at least one of the c-kit cell assays of Example 26
Method in brief: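 IC50 derived from ATP-content luminescence (ATPlite) after three-day compound exposure at 37° C., 5% CO2. Cells: BaF3 rendered growth-dependent on full-length human KIT D816V or V560G/D816V, 1×10^4 per well, RPMI plus 10% FBS; 8 points, 1:3 steps, maximum 10 μM final, 0.2% DMSO.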

Structure (SMILES)	IC50 [µM]
Cc1cc(C(=O)Nc2cnc3[nH]c(-c4ccc(F)cc4)cc3c2)nn1C [P-2119, N-[2-(4-fluorophenyl)-1H-pyrrolo[2,3-b]pyridin-5-yl]-1,5-dimethyl-pyrazole-3-carboxamide]	< 10
Cc1[nH]nc(C(=O)Nc2cnc3[nH]c(-c4cccc(F)c4OC(F)F)cc3c2)c1C [P-2264, N-(2-(2-(difluoromethoxy)-3-fluorophenyl)-1H-pyrrolo[2,3-b]pyridin-5-yl)-4,5-dimethyl-1H-pyrazole-3-carboxamide]	< 10
Cc1[nH]nc(C(=O)Nc2cnc3[nH]cc(-c4ccnc(N5CCOCC5)c4)c3c2)c1C [P-2193, 4,5-dimethyl-N-(3-(2-morpholinopyridin-4-yl)-1H-pyrrolo[2,3-b]pyridin-5-yl)-1H-pyrazole-3-carboxamide]	< 10
Cc1[nH]nc(C(=O)Nc2cnc3[nH]c(-c4cnn(C5COC5)c4C)cc3c2)c1C [P-2196, 4,5-dimethyl-N-(2-(5-methyl-1-(oxetan-3-yl)-1H-pyrazol-4-yl)-1H-pyrrolo[2,3-b]pyridin-5-yl)-1H-pyrazole-3-carboxamide]	< 10
Cc1[nH]nc(C(=O)Nc2cnc3[nH]c(-c4ccnc(N5CCC(O)CC5)c4)cc3c2)c1C [P-2212, N-(2-(2-(4-hydroxypiperidin-1-yl)pyridin-4-yl)-1H-pyrrolo[2,3-b]pyridin-5-yl)-4,5-dimethyl-1H-pyrazole-3-carboxamide]	< 10
CCc1cncc(-c2cc3cc(NC(=O)c4n[nH]c(C)c4C)cnc3[nH]2)c1 [P-2256, N-(2-(5-ethylpyridin-3-yl)-1H-pyrrolo[2,3-b]pyridin-5-yl)-4,5-dimethyl-1H-pyrazole-3-carboxamide]	< 10
Cc1cc(-c2cc3cc(NC(=O)c4n[nH]c(C)c4C)cnc3[nH]2)ccn1 [P-2246, 4,5-dimethyl-N-(2-(2-methylpyridin-4-yl)-1H-pyrrolo[2,3-b]pyridin-5-yl)-1H-pyrazole-3-carboxamide]	< 10
Cc1[nH]nc(C(=O)Nc2cnc3[nH]c(-c4ccnc(C5CCNCC5)c4)cc3c2)c1C [P-2211, 4,5-dimethyl-N-(2-(2-(piperidin-4-yl)pyridin-4-yl)-1H-pyrrolo[2,3-b]pyridin-5-yl)-1H-pyrazole-3-carboxamide]	< 10
O=C(Nc1cnc2[nH]c(-c3ccc(F)cc3)cc2c1)c1ncn[nH]1 [P-2035, N-[2-(4-fluorophenyl)-1H-pyrrolo[2,3-b]pyridin-5-yl]-1H-1,2,4-triazole-5-carboxamide]	< 10
OC(c1cccnc1)c1cnc2[nH]c(-c3ccccc3)cc2c1 (centres unmarked) [P-2001, (2-phenyl-1H-pyrrolo[2,3-b]pyridin-5-yl)-(3-pyridyl)methanol]	< 10
COc1ccc(-c2cc3cc(NC(=O)c4[nH]nc(C)c4C)cnc3[nH]2)cc1 [P-2099, N-[2-(4-methoxyphenyl)-1H-pyrrolo[2,3-b]pyridin-5-yl]-3,4-dimethyl-1H-pyrazole-5-carboxamide]	< 10
Cc1[nH]nc(C(=O)Nc2cnc3[nH]c(-c4cncc(C5CC5)c4)cc3c2)c1C [P-2243, N-(2-(5-cyclopropylpyridin-3-yl)-1H-pyrrolo[2,3-b]pyridin-5-yl)-4,5-dimethyl-1H-pyrazole-3-carboxamide]	< 10
O=C(O)c1ccc(C(=O)Nc2cnc3[nH]c(-c4ccccc4)cc3c2)cc1 [P-2303, 4-[(2-phenyl-1H-pyrrolo[2,3-b]pyridin-5-yl)carbamoyl]benzoic acid]	< 10
Cc1cc(-c2cc3cc(NC(=O)c4n[nH]c(C)c4C)cnc3[nH]2)cnc1C [P-2244, N-(2-(5,6-dimethylpyridin-3-yl)-H-pyrrolo[2,3-b]pyridin-5-yl)-4,5-dimethyl-1H-pyrazole-3-carboxamide]	< 10
CCCCNC(=O)Nc1cccc(-c2cc3cc(NC(=O)c4[nH]nc(C)c4C)cnc3[nH]2)c1 [P-2134, N-[2-[3-(butylcarbamoylamino)phenyl]-1H-pyrrolo[2,3-b]pyridin-5-yl]-3,4-dimethyl-H-pyrazole-5-carboxamide]	< 10
Cc1[nH]nc(C(=O)Nc2cnc3[nH]c(-c4cncc(C(F)(F)F)c4)cc3c2)c1C [P-2254, 4,5-dimethyl-N-(2-(5-(trifluoromethyl)pyridin-3-yl)-1H-pyrrolo[2,3-b]pyridin-5-yl)-1H-pyrazole-3-carboxamide]	< 10
CC(C)=CC(=O)N1CCN(c2cc(-c3cc4cc(NC(=O)c5n[nH]c(C)c5C)cnc4[nH]3)ccn2)CC1 [P-2215, 4,5-dimethyl-N-(2-(2-(4-(3-methylbut-2-enoyl)piperazin-1-yl)pyridin-4-yl)-1H-pyrrolo[2,3-b]pyridin-5-yl)-1H-pyrazole-3-carboxamide]	< 10
Cc1[nH]nc(C(=O)Nc2cnc3[nH]c(-c4ccnc(NC(=O)C5CC5)c4Cl)cc3c2)c1C [P-2205, N-(2-(3-chloro-2-(cyclopropanecarboxamido)pyridin-4-yl)-1H-pyrrolo[2,3-b]pyridin-5-yl)-4,5-dimethyl-1H-pyrazole-3-carboxamide]	< 10
Cc1n[nH]c(C(=O)Nc2cnc3[nH]c(-c4cnn(CC(C)C)c4)cc3c2)c1C [P-2083, N-[2-(1-isobutylpyrazol-4-yl)-1H-pyrrolo[2,3-b]pyridin-5-yl]-3,4-dimethyl-1H-pyrazole-5-carboxamide]	< 10
Cc1cccc(Cl)c1C(=O)Nc1cnc2[nH]c(-c3ccc(F)cc3)cc2c1 [P-2022, 2-chloro-N-[2-(4-fluorophenyl)-1H-pyrrolo[2,3-b]pyridin-5-yl]-6-methyl-benzamide]	< 10
CCOc1ncccc1-c1cc2cc(NC(=O)c3n[nH]c(C)c3C)cnc2[nH]1 [P-2239, N-(2-(2-ethoxypyridin-3-yl)-1H-pyrrolo[2,3-b]pyridin-5-yl)-4,5-dimethyl-1H-pyrazole-3-carboxamide]	< 10
Cc1cnccc1-c1cc2cc(NC(=O)c3n[nH]c(C)c3C)cnc2[nH]1 [P-2251, 4,5-dimethyl-N-(2-(3-methylpyridin-4-yl)-1H-pyrrolo[2,3-b]pyridin-5-yl)-1H-pyrazole-3-carboxamide]	< 10

Further lines, results first:

IC50 [µM]	Structure (SMILES)
< 10	O=C(Nc1cnc2[nH]c(-c3ccccc3)cc2c1)c1cccc2[nH]ccc12 [P-2299, N-(2-phenyl-1H-pyrrolo[2,3-b]pyridin-5-yl)-1H-indole-4-carboxamide]
< 10	CCCc1cc(C(=O)Nc2cnc3[nH]c(-c4ccc(F)cc4)cc3c2)[nH]n1 [P-2132, N-[2-(4-fluorophenyl)-1H-pyrrolo[2,3-b]pyridin-5-yl]-3-propyl-1H-pyrazole-5-carboxamide]
< 10	Cc1[nH]nc(C(=O)Nc2cnc3[nH]c(-c4ccnc(C(=O)N(C)C)c4)cc3c2)c1C [P-2224, 4-(5-(4,5-dimethyl-1H-pyrazole-3-carboxamido)-1H-pyrrolo[2,3-b]pyridin-2-yl)-N,N-dimethylpicolinamide]
< 10	Cc1n[nH]c(C(=O)Nc2cnc3[nH]c(-c4ccc(N5CCN(C)CC5)cc4)cc3c2)c1C [P-2104, 3,4-dimethyl-N-[2-[4-(4-methylpiperazin-1-yl)phenyl]-1H-pyrrolo[2,3-b]pyridin-5-yl]-1H-pyrazole-5-carboxamide]
< 10	COc1ccc(-c2cc3cc(NC(=O)c4[nH]nc(C)c4C)cnc3[nH]2)cn1 [P-2090, N-[2-(6-methoxy-3-pyridyl)-1H-pyrrolo[2,3-b]pyridin-5-yl]-3,4-dimethyl-1H-pyrazole-5-carboxamide]
< 10	O=C(Nc1cnc2[nH]c(-c3ccccc3)cc2c1)c1n[nH]c(Cl)c1C(F)F [P-2236, 5-chloro-4-(difluoromethyl)-N-(2-phenyl-1H-pyrrolo[2,3-b]pyridin-5-yl)-1H-pyrazole-3-carboxamide]
< 10	O=C(c1cccnc1)c1cnc2[nH]c(-c3ccccc3)cc2c1 [P-2002, (2-phenyl-1H-pyrrolo[2,3-b]pyridin-5-yl)-(3-pyridyl)methanone]
< 10	CCc1n[nH]c(C(=O)Nc2cnc3[nH]c(-c4ccc(F)cc4)cc3c2)c1Cl [P-2173, 4-chloro-3-ethyl-N-[2-(4-fluorophenyl)-1H-pyrrolo[2,3-b]pyridin-55-yl]-1H-pyrazole-5-carboxamide]
< 10	Cc1n[nH]c(C(=O)Nc2cnc3[nH]c(-c4ccnc(N5CCOCC5)c4)cc3c2)c1C [P-2110, 3,4-dimethyl-N-[2-(2-morpholino-4-pyridyl)-1H-pyrrolo[2,3-b]pyridin-5-yl]-1H-pyrazole-5-carboxamide]
< 10	COc1cc(-c2cc3cc(NC(=O)c4[nH]nc(C)c4C)cnc3[nH]2)ccn1 [P-2109, N-[2-(2-methoxy-4-pyridyl)-1H-pyrrolo[2,3-b]pyridin-5-yl]-3,4-dimethyl-1H-pyrazole-5-carboxamide]
